# Measurements taken from patent EP0939136A1, “Assay for predicting the angiographic response to lipid-lowering therapy in patients” (Academisch Ziekenhuis bij de Universiteit van Amsterdam, priority 1998, dated 1999).
# Legend:
# Assay type in all cases: in vivo, male patients
# [1] = REGRESS trial: in-trial changes in plasma lipids and lipoproteins; conditions: 40 mg/day, two years
# Procedure: (§1) 807 Male patients participating in the Regression Growth Evaluation Statin Study (REGRESS), which has previously been described in detail (Kuivenhoven et al., Arterioscler. Thromb. Vasc. Biol. 17:560-568 (1997)) were prospectively studied. In short, study participants were required to have at least one coronary artery with a stenosis off >50 percent as assessed by coronary angiography, a plasma total cholesterol concentration of 155-310 mg per deciliter (4 to 8 millimole per liter) and triglycerides of 350 mg per deciliter(< 4 millimole per liter). Patients were subsequently randomized to treatment with pravastatin sodium (Pravachol®; 40 mg/day ) or to placebo for a period of two years. The placebo group contained 396 patients and the group treated with pravastatin contained 411 patients.
# Plasma lipids and lipoproteins were measured using standard techniques (Groenemeyer et al., Circulation 95:2628-2653 (1997)). Due to a lack of sufficient aliquots of plasma, CETP concentrations were determined in 237 patients at baseline, and in only 68 pravastatin-treated subjects at the end of the trial. These measurements were performed by solid phase radioimmunoassay using recombinant human protein (provided by Dr. A.Tall; Columbia University, New York) as standard and a CETP monoclonal antibody, TP2 (produced by Dr. R. Milne; University of Ottawa Heart Institute; Ottawa, McPherson et al., Arterioscler. Thromb 11:797-804 (1991). In addition, the lipase and lipoprotein lipase activities were measured as reported (Groenemeyer et al., supra).
# (§2) The differences between carriers of the three TaqIB genotypes (i.e. B1B1, B1B2, and B2B2) were tested using one-way ANOVA or Pearson's Chi-square test. Changes in lipids, lipoproteins and angiographic parameters during the trial period were quantified with means and standard deviations, and the differences within the two medication groups were tested using one-way covariance analysis with baseline levels as covariates.
# [2] = REGRESS trial: computer-assisted quantitative coronary angiography (MSD, MOD); conditions: for MOD decrease: median (IQR) / MSD decrease: mean (SD): 40 mg/day, two years, larger figure = more progression of atherosclerosis
# Procedure: as §1
# Computer-assisted quantitative coronary angiography was carried out at the start and at the end of the study. The two following primary measures of outcome were used: (a) the change in the average Mean Segment Diameter (MSD) per patient (also known as Mean Lumen Diameter) reflecting diffuse changes of atherosclerosis, and (b) the change in the average Minimum Obstruction Diameter […]) which reflects the focal change of atherosclerosis. Given these definitions, one should note that a greater decrease in MSD and/or MOD reflects more progression of coronary atherosclerosis.
# as §2
# The interaction between the three CETP TaqIB genotypes and medication (placebo/pravastatin) was tested using the interaction test of two-way covariance analysis. It was checked whether the above interaction between genotype and medication was dependent of baseline HDL cholesterol concentration, changes in HDL during the trial, baseline MSD, baseline MOD, and each of hepatic lipase or lipoprotein lipase activity by using these as covariates in two-way covariance analysis. The latter analysis was also carried out to test if the significant differences in decrease in either MSD or MOD as identified amongst the TaqIB subgroups in the placebo group, were dependent on the above parameters.
# [3] = REGRESS trial: events (death and myocardial infarction); conditions: 40 mg/day, two years
# Procedure: as §1
# Differences in rate of events between genotypes were analyzed with Pearson Chi-square tests within the medication groups, and the interaction between genotype and medication with logistic regression. Within each of the patient groups, the Hardy-Weinberg equilibrium was tested by means of gene counting and χ^2 analysis. Throughout, a P value of 0.05 was interpreted as representing a statistically significant difference. All statistical analyses were carried out with the Statistical Analysis System (SAS, version 6.1, SAS Institute, Cari, NC) and adapted from the EGRET Manual, (Statistical and Epidemiological Research Corporation, 1991, Seattle, Washington, USA).
# Abbreviations: MSD = mean segment Diameter; MOD = minimum obstruction diameter (Note: A larger figure for either a decrease in mean segment diameter (MSD) or minimum obstruction diameter (MOD) indicates more progression of atherosclerosis). SD = standard deviation; IQR = interquartile range; * P value of covariance analysis of the change measures with baseline values as covariate, or chi-square test (where appropriate), comparing the three CETP-TaqIB genotypes; ^† P value of the interaction test of the interaction between treatment (placebo/pravastatin) and the CETP TaqIB genotype (B1B1-B1B2-B2B2) of covariance analysis with baseline values as covariate or of logistic regression, where appropriate. P values while comparing TaqIB subgroup of the placebo group with the pravastatin group: ^‡ P<0.001; ^§ P<0.38; ^¶ P<0.30; ^¥ P<0.002; ** P<0.01; ^†† P<0.48. ? Events are defined as death and myocardial infarction. For conversion from mg.dL^-1 to mmol.L^-1 for total cholesterol, LDL cholesterol and HDL cholesterol levels, multiply by factor 0.02586. For conversion of triglyceride levels from mg.dL^-1 to mmol.L^-1, use 0.01129. [formula] [formula] [formula]
# [4] = tested on: CETP; experiment: Plasma CETP concentration by solid phase radioimmunoassay; conditions: 68 pravastatin-treated subjects, P<0.001
# Procedure: as §1
# Plasma lipids and lipoproteins were measured using standard techniques (Groenemeyer et al., Circulation 95:2628-2653 (1997)). Due to a lack of sufficient aliquots of plasma, CETP concentrations were determined in 237 patients at baseline, and in only 68 pravastatin-treated subjects at the end of the trial. […]
# [5] = CETP TaqIB genotype B1B1 (n=136)
# [6] = CETP TaqIB genotype B1B2 (n=212)
# [7] = CETP TaqIB genotype B2B2 (n=63)
structure (smiles),measurement,setting,value
"CC[C@H](C)C(=O)O[C@H]1C[C@H](O)C=C2C=C[C@H](C)[C@H](CC[C@@H](O)C[C@@H](O)CC(=O)O)[C@H]21 [Pravastatin, pravastatin sodium]",HDL cholesterol incr.: mean (SD),[1]; [5],4.3 (6.2) mg.dL^-1
same,LDL cholesterol red.: mean (SD),[1]; [5],56.8 (26.7) mg.dL^-1
same,Total cholesterol red.: mean (SD),[1]; [5],53.8 (32.1) mg.dL^-1
same,Triglyceride red.: ln(g.mean) (CV),[1]; [5],7.1 (32.8) mg.dL^-1
same,HDL cholesterol incr.: mean (SD),[1]; [6],3.9 (7.0) mg.dL^-1
same,LDL cholesterol red.: mean (SD),[1]; [6],49.5 (29) mg.dL^-1
same,Total cholesterol red.: mean (SD),[1]; [6],48.3 (32.5) mg.dL^-1
same,Triglyceride red.: ln(g.mean) (CV),[1]; [6],7.1 (37.2) mg.dL^-1
same,HDL cholesterol incr.: mean (SD),[1]; [7],3.5 (6.6) mg.dL^-1
same,LDL cholesterol red.: mean (SD),[1]; [7],56.5 (33.6) mg.dL^-1
same,Total cholesterol red.: mean (SD),[1]; [7],54.1 (35.2) mg.dL^-1
same,Triglyceride red.: ln(g.mean) (CV),[1]; [7],5.3 (38.1) mg.dL^-1
same,progression of coronary atherosclerosis compared with counterparts in the placebo group,"[2]; B2B2 homozygotes, end of the study",statistically non-significant larger progression
same,MOD decrease: median (IQR),[2]; [5],0.01 (.19) mm
same,MSD decrease: mean (SD),[2]; [5],0.05 (.16) mm
same,MOD decrease: median (IQR),[2]; [6],0.04 (.21) mm
same,MSD decrease: mean (SD),[2]; [6],0.07 (.20) mm
same,MOD decrease: median (IQR),[2]; [7],0.04 (.22) mm
same,MSD decrease: mean (SD),[2]; [7],0.09 (.16) mm
same,progression of coronary atherosclerosis compared with counterparts in the placebo group,"[2]; carriers of one B1 allele (B1B2), MOD, P<0.01",significantly less focal atherosclerosis
same,progression of coronary atherosclerosis compared with counterparts in the placebo group,"[2]; carriers of two B1 alleles (B1B1), smaller decreases of MSD and MOD (P<0.001, P<0.002)",significantly less progression of coronary atherosclerosis
same,Events (yes/no): (%),[3]; [5],2.9%
same,Events (yes/no): n,[3]; [5],4
same,Events (yes/no): (%),[3]; [6],1.9%
same,Events (yes/no): n,[3]; [6],4
same,Events (yes/no): (%),[3]; [7],0.0%
same,Events (yes/no): n,[3]; [7],0
same,plasma CETP concentration,[4]; end of the trial (baseline 2.03±0.53),1.71±0.46 µg per milliliter
same,reduction in plasma CETP concentrations,[4]; end of the trial compared with baseline,16%
